The test system of one data set is SCC‐13 cells. Briefly: Flow cytometry binding of FITC‐RS17 to SCC‐13 cells. The format is cell-based, human. The conditions noted are these: 1 μM FITC‐RS17, 1 h, 37℃. How it is done:
(§1) The peptides were synthesized using the solid‐phase peptide synthesis method. Amino acid activation phase included 1‐hydroxybenzotriazole (HOBt) and N, N′‐diisopropylcarbodiimide (DIC). Deprotection agent was piperidine (PIP). Following synthesis, the peptides were cleaved with 90% of trifluoroacetic acid (TFA) and precipitated with ether to obtain the crude product. The crude peptides were purified by HPLC and the molecular weight were measured by online ESI‐MS, respectively. Besides, the FITC‐RS17 peptide was prepared by coupling with FITC through the Acp active group to RS17. The product was purified and analyzed by the same process.
(§2) The SCC‐13 human cutaneous squamous cell carcinoma cell lines, HepG2 human HCC cell line, THP‐1 human mononuclear cell line, and mouse mononuclear/macrophage cell lines were from Chinese Academy of Sciences in Shanghai. SCC‐13 and HepG2 cells were incubated in DMEM medium which contains 100 μg/ml of streptomycin and 50 μg/ml of penicillin. The medium also contains 10% of fetal bovine serum from Gibco Life Technologies. […]
(§3) The binding of RS17 to the CD47‐expressing cells were assessed by the Flow cytometry technique. […]. ^14 In brief, HepG2 and SCC‐13 cells were collected and adjusted to 3 × 10^6 cells/ml. […] After washing with PBS, the cells were analyzed with a flow cytometer (Miltenyi Biotec GmbH). Data were analyzed with FlowJo 7.6.

A further data set deals with HepG2 cells. Briefly: Flow cytometry binding of FITC‐RS17 to HepG2 cells. Type of data set: cell-based, human. The conditions noted are these: 1 μM FITC‐RS17, 1 h, 37℃. As to the method: as §1, §2, §3
A general note: A flow cytometer gives signals particle by particle.

The target of another data set is T1, CD47 protein (Homo sapiens, UniProt Q08722).
T1 construct: CD47 protein was from Cloud‐Clone; purchased Cloud‐Clone
Briefly: Microscale thermophoresis (MST), RS17–CD47 interaction. The format is binding. The conditions noted are these: Monolith NT.115, NT‐Analysis, Cy5-labeled CD47 mixed 1:1 with diluted peptide, 5 min, room temperature, read-out: dissociation constant (Kd) for RS17 and CD47 interaction. How it is done: CD47 protein was from Cloud‐Clone. The CD47 protein was dissolved in a buffer solution without primary amine compounds and exchanged by mixed column A. The CD47 protein was stained by Cy5 fluorescent dye (Ruixin Biological Technology) and after staining, the labeled protein was purified by column B. Finally, the RS17 peptides were diluted and mixed with the labeled protein in a 1:1 ratio. After incubating at room temperature for 5 min, samples were detected and data were processed by Monolith NT.115 and NT‐Analysis, which were from NanoTemper.
Microscale thermophoresis (MST) is an effective technique that accurately quantitates the interaction between two molecules. It depends on the thermo‐swimming movement of a molecule, which is a directional transfer of the molecule across a temperature gradient dependent on molecular properties such as molecular size, electric charge, and conformation. ^39 A Monolith NT.115 instrument was used as a platform to perform the MST experiment and the results were analyzed using the accompanying NT‐Analysis software.
Background: In MST a laser heats a spot of the sample, and binding alters the fluorescence response.

For another data set, the system named is RFP HepG2 cells. The conditions noted are these: in vivo, sc, 20 mg/kg. How it is done:
RFP (CMV‐Puro) lentiviral particles were purchased from HanBio. 5 × 10^4 HepG2 in DMEM medium were seeded into each well of a 12‐well plate in presence of 10% FBS. A 6 μg/ml of Polybrene and 20 MOI lentivirus were added to each well. The cells were resuspended in DMEM medium in presence of 8 μg/ml puromycin after a 48‐h transfection. DMEM medium with 8 μg/ml of puromycin was replaced every 2 days for 1 week. RFP‐positive HepG2 cells were then acquired by flow cytometry. Polybrene and puromycin were from Sigma. Nude mice were subcutaneously injected with 2 × 10^7 RFP HepG2 cells into the ventral side and separated into three groups (5 per group). One of the groups was selected as the experimental group and received a daily subcutaneous injection with RS17 (20 mg/kg), the other two groups represented a positive control and a blank control and received a daily subcutaneous injection with B6H12 (20 mg/kg) and PBS, respectively. Daily injections were administered for 28 days. Body weight, tumor volume, and imaging on day 28 were carried out described above.

The nature of data set [1]: Body weight / tolerability in nude mice, ex vivo experiment. To be noted: 7 days. As to the method: Female Balb/c nude mice (4–5 weeks) were bred in the absence of pathogens to assess the antitumor activity of indirect therapies in vivo.
RFP‐positive HepG2 cells at a concentration of 2 × 10^7/ml were first co‐incubated for 1 h with 1 μM B6H12 (positive control) or RS17. The nude mice were separated into three groups (5 per group) and subcutaneously injected with 200 μl RFP‐positive HepG2 cells into the ventral side. Normal feeding lasted for 7 days. Body weight and tumor volume were measured in nude mice. Tumor dimensions were measured in two directions with and the formula of ½ × a × b ^2 (a, length; b, width) was used to calculate tumor volume. The intravital fluorescence intensity of the tumors were detected with PerkinElmer IVIS Spectrum on day 7.

Data set [2] addresses CD47 on SCC-13 and HepG2 tumor cells (human (endogenous in SCC-13 and HepG2)) (UniProt Q08722).

These results are taken from paper PMC7957188, “An antitumor peptide RS17‐targeted CD47, design, synthesis, and antitumor activity” (Cancer Medicine, 2021).

Broadly, the Kd is the equilibrium constant for the complex coming apart.

Where no end group is shown, it is not given here. The star is where a group is joined. FITC = O=C1OC2(c3ccc(O)cc3Oc3cc(O)ccc32)c2ccc(NC(=S)*)cc21; Acp = not defined here

Chain of CD47 on SCC-13 and HepG2 tumor cells (human (endogenous in SCC-13 and HepG2)) (Q08722 19-323): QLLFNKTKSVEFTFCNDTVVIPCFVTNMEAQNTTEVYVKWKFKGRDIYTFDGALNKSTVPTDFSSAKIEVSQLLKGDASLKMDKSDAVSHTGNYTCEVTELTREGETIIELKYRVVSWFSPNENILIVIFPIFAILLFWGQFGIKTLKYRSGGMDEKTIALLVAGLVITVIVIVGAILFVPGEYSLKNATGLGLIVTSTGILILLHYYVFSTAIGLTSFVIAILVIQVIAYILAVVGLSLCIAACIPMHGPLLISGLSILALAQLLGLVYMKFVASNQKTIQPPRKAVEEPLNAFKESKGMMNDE

Consider “FITC‐RS17: prepared by coupling with FITC through the Acp active group to RS17 ({FITC-Acp}-RRYKQDGGWSHWSPWSS; reading uncertain)”, for which, in the data set on SCC‐13 cells, the “binding of FITC‐RS17 to SCC‐13 cells (in words)” value is reported as “effectively bound”. For the same molecule, the “binding of FITC‐RS17 to HepG2 cells (in words)” value in the data set on HepG2 cells is recorded as “effectively bound”.
Turning to RRYKQDGGWSHWSPWSS [RS17], at CD47 protein, the Kd came out at 3.86 ± 0.789 nM. The “inhibition of tumor growth” value in the data set with RFP HepG2 cells is reported as over 50%. In data set [1], the tolerability result is listed as “well tolerated”.

B1: RS17 peptide (peptide)
peptide: RRYKQDGGWSHWSPWSS
B1 showed an in vivo: growth of HepG2 xenografts in nude mice with daily subcutaneous RS17 (20 mg/kg) for 28 days; pair blocked: CD47 on HepG2 and SIRPα on mouse macrophages in data set [2] of over 50%.
